Measurements as given in patent US9084420B2, “Amide derivative, pest control agent containing the amide derivative, and pest controlling method” (Mitsui Chemicals Agro, Inc., priority 2008, dated 2015).

Legend:
[1] = system: Spodoptera litura; assay: Pesticidal test against Spodoptera litura (cabbage leaf immersion); type: in vivo; settings: 144 h, 2-stage larvae on treated cabbage leaf, 25° C., after 6 days, read-out: pesticidal rate
Method: (§1) Pesticidal Test Against Spodoptera litura A piece of a cabbage leaf was immersed for 30 seconds in a chemical solution in which a test compound had been diluted at a predetermined concentration, and air-dried, and then put into a 7 cm polyethylene cup having a filter paper laid on the bottom thereof, and 2-stage larvae of Spodoptera litura were released. They were left to stand in a thermostatic chamber at 25° C., and the numbers of the living pests and the dead pests were examined after 6 days. The test was carried out with five larvae per group in two replicates.

[2] = system: Plutella xylostella; assay: Pesticidal test against Plutella xylostella (cabbage leaf immersion); type: in vivo; settings: 144 h, 3-stage larvae on treated cabbage leaf, 25° C., after 6 days, read-out: pesticidal rate
Method: as §1, with “Plutella xylostella” for “Spodoptera litura”, “3-stage” for “2-stage”

Row | Structure (SMILES) | pest or weed control at 100 ppm [1] [%] | pest or weed control at 100 ppm [2] [%]
1 | COC(=O)CCN(C(=O)c1ccccc1)c1cccc(C(=O)Nc2c(C)cc(C(F)(C(F)(F)F)C(F)(F)F)cc2C)c1 [5-1, methyl 3-(N-(3-(2,6-dimethyl-4-(perfluoropropan-2-yl)phenylcarbamoyl)phenyl)benzamide)propanoate] | ≥ 70 | ≥ 70
2 | Cc1cc(C(F)(C(F)(F)F)C(F)(F)F)cc(C)c1N(CCO)C(=O)c1cccc(N(C)C(=O)c2ccccc2)c1F [7-23, N-(2,6-dimethyl-4-(perfluoropropan-2-yl)phenyl)-2-fluoro-N-(2-hydroxyethyl)-3-(N-methylbenzamide)benzamide] | – | ≥ 70
3 | Cc1cc(C(F)(C(F)(F)F)C(F)(F)F)cc(C)c1N(C)C(=O)c1cccc(N(CCCC(N)=O)C(=O)c2ccccc2)c1 [6-15, 3-(N-(4-amino-4-oxobutyl)benzamide)-N-(2,6-dimethyl-4-(perfluoropropan-2-yl)phenyl)-N-methylbenzamide] | ≥ 70 | ≥ 70
4 | Cc1cc(C(F)(C(F)(F)F)C(F)(F)F)cc(C)c1N(CC(=O)O)C(=O)c1cccc(N(C)C(=O)c2ccccc2)c1F [7-222, 2-(N-(2,6-dimethyl-4-(perfluoropropan-2-yl)phenyl)-2-fluoro-3-(N-methylbenzamide)benzamide)acetic acid] | ≥ 70 | ≥ 70
5 | Cc1cc(C(F)(C(F)(F)F)C(F)(F)F)cc(C)c1NC(=O)c1cccc(N(CCCN)C(=O)c2ccccc2)c1 [6-20, N-(3-aminopropyl)-N-(3-(2,6-dimethyl-4-(perfluoropropan-2-yl)phenylcarbamoyl)phenyl)benzamide] | ≥ 70 | ≥ 70
6 | COC(=O)CCCN(C(=O)c1ccccc1)c1cccc(C(=O)N(C)c2c(C)cc(C(F)(C(F)(F)F)C(F)(F)F)cc2C)c1 [6-13, methyl 4-(N-(3-((2,6-dimethyl-4-(perfluoropropan-2-yl)phenyl)(methyl)carbamoyl)phenyl)benzamide)butanoate] | – | ≥ 70
7 | Cc1cc(C(F)(C(F)(F)F)C(F)(F)F)cc(C)c1N(C)C(=O)c1cccc(N(CS(C)(=O)=O)C(=O)c2ccccc2)c1 [6-8, N-(2,6-dimethyl-4-(perfluoropropan-2-yl)phenyl)-N-methyl-3-(N-(methylsulfonylmethyl)benzamide)benzamide] | ≥ 70 | ≥ 70
8 | Cc1cc(C(F)(C(F)(F)F)C(F)(F)F)cc(C)c1NC(=O)c1cccc(N(CCCN/C(N)=N/[N+](=O)[O-])C(=O)c2ccccc2)c1 [6-61, N-(3-(2,6-dimethyl-4-(perfluoropropan-2-yl)phenylcarbamoyl)phenyl)-N-(3-(2-nitroguanidino)propyl)benzamide] | ≥ 70 | –
9 | Cc1cc(C(F)(C(F)(F)F)C(F)(F)F)cc(C)c1N(C)C(=O)c1cccc(N(CCO)C(=O)c2ccccc2)c1 [5-35, N-(2,6-dimethyl-4-(perfluoropropan-2-yl)phenyl)-3-(N-(2-hydroxyethyl)benzamide)-N-methylbenzamide] | ≥ 70 | ≥ 70
10 | COC(=O)CN(C(=O)c1cccc(N(C)C(=O)c2ccccc2)c1F)c1c(C)cc(C(F)(C(F)(F)F)C(F)(F)F)cc1C [7-221, methyl 2-(N-(2,6-dimethyl-4-(perfluoropropan-2-yl)phenyl)-2-fluoro-3-(N-methylbenzamide)benzamide)acetate] | ≥ 70 | ≥ 70
11 | O=C(O)CCN(C(=O)c1ccccc1)c1cccc(C(=O)Nc2c(I)cc(C(F)(C(F)(F)F)C(F)(F)F)cc2C(F)(F)F)c1 [5-88, 3-(N-(3-(2-iodo-4-(perfluoropropan-2-yl)-6-(trifluoromethyl)phenylcarbamoyl)phenyl)benzamide)propanoic acid] | ≥ 70 | ≥ 70
12 | CSCCN(C(=O)c1ccccc1)c1cccc(C(=O)N(C)c2c(C)cc(C(F)(C(F)(F)F)C(F)(F)F)cc2C)c1 [5-71, N-(2,6-dimethyl-4-(perfluoropropan-2-yl)phenyl)-N-methyl-3-(N-(2-(methylthio)ethyl)benzamide)benzamide] | ≥ 70 | ≥ 70
13 | Cc1cc(C(F)(C(F)(F)F)C(F)(F)F)cc(C)c1NC(=O)c1cccc(N(CCC(=O)NN)C(=O)c2ccc(C#N)cc2)c1F [5-83, 3-(4-cyano-N-(3-hydrazinyl-3-oxopropyl)benzamide)-N-(2,6-dimethyl-4-(perfluoropropan-2-yl)phenyl)-2-fluorobenzamide] | ≥ 70 | ≥ 70
14 | Cc1cc(C(F)(C(F)(F)F)C(F)(F)F)cc(C)c1NC(=O)c1cccc(N(CC/C(N)=N/O)C(=O)c2ccccc2)c1 [5-91, N-(3-amino-3-(hydroxyimino)propyl)-N-(3-(2,6-dimethyl-4-(perfluoropropan-2-yl)phenylcarbamoyl)phenyl)benzamide] | ≥ 70 | ≥ 70
15 | Cc1cc(C(F)(C(F)(F)F)C(F)(F)F)cc(C)c1NC(=O)c1cccc(N(CC=O)C(=O)c2ccccc2)c1 [6-59, N-(3-(2,6-dimethyl-4-(perfluoropropan-2-yl)phenylcarbamoyl)phenyl)-N-(2-oxoethyl)benzamide] | ≥ 70 | ≥ 70
16 | CSCN(C(=O)c1ccccc1)c1cccc(C(=O)N(C)c2c(C)cc(C(F)(C(F)(F)F)C(F)(F)F)cc2C)c1 [6-6, N-(2,6-dimethyl-4-(perfluoropropan-2-yl)phenyl)-N-methyl-3-(N-(methylthiomethyl)benzamide)benzamide] | ≥ 70 | ≥ 70
17 | COC(=O)CN(C(=O)c1ccccc1)c1cccc(C(=O)N(CC(=O)OC)c2c(C)cc(C(F)(C(F)(F)F)C(F)(F)F)cc2C)c1F [8-12, methyl 2-(N-(3((2,6-dimethyl-4-(perfluoropropan-2-yl)phenyl)(2-methoxy-2-oxoethyl)carbamoyl)-2-fluorophenyl)benzamide)acetate] | ≥ 70 | ≥ 70
18 | Cc1cc(C(F)(C(F)(F)F)C(F)(F)F)cc(C)c1N(CC(N)=O)C(=O)c1cccc(N(C)C(=O)c2ccccc2)c1F [7-220, N-(2-amino-2-oxoethyl)-N-(2,6-dimethyl-4-(perfluoropropan-2-yl)phenyl)-2-fluoro-3-(N-methylbenzamide)benzamide] | ≥ 70 | ≥ 70
19 | CNC(=O)NCCCN(C(=O)c1ccccc1)c1cccc(C(=O)Nc2c(C)cc(C(F)(C(F)(F)F)C(F)(F)F)cc2C)c1 [6-49, N-(3-(2,6-dimethyl-4-(perfluoropropan-2-yl)phenylcarbamoyl)phenyl)-N-(3-(3-methylureido)propyl)benzamide] | ≥ 70 | ≥ 70
20 | Cc1cc(C(F)(C(F)(F)F)C(F)(F)F)cc(C)c1NC(=O)c1cccc(N(CCC(=O)NCCCC(NC(=O)OC(C)(C)C)C(=O)OC(C)(C)C)C(=O)c2ccccc2)c1 (stereo not drawn) [5-15, tert-butyl 2-(3-(2,6-dimethyl-4-(perfluoropropan-2-yl)phenylcarbamoyl)phenyl)-14,14-dimethyl-1,5,12-trioxo-1-phenyl-13-oxa-2,6,11-triazapentadecane-10-carboxylate] | ≥ 70 | ≥ 70
21 | Cc1cc(C(F)(C(F)(F)F)C(F)(F)F)cc(C)c1N(CCC(N)=O)C(=O)c1cccc(NC(=O)c2ccccc2)c1 [7-1, N-(3-amino-3-oxopropyl)-3-benzamide-N-(2,6-dimethyl-4-(perfluoropropan-2-yl)phenyl)benzamide] | ≥ 70 | ≥ 70
22 | N#Cc1ccc(C(=O)N(CCC(=O)NCC(N)=O)c2cccc(C(=O)Nc3c(Br)cc(C(F)(C(F)(F)F)C(F)(F)F)cc3Br)c2F)cc1 [5-31, 3-(N-(3-(2-amino-2-oxoethylamino)-3-oxopropyl)-4-cyanobenzamide)-N-(2,6-dibromo-4-(perfluoropropan-2-yl)phenyl)-2-fluorobenzamide] | ≥ 70 | ≥ 70
23 | CS(=O)(=O)CCN(C(=O)c1cccc(NC(=O)c2ccccc2)c1F)c1c(Br)cc(C(F)(C(F)(F)F)C(F)(F)F)cc1Br [7-169, 3-benzamide-N-(2,6-dibromo-4-(perfluoropropan-2-yl)phenyl)-2-fluoro-N-(2-(methylsulfonyl)ethyl)benzamide] | – | ≥ 70
24 | Cc1cc(C(F)(C(F)(F)F)C(F)(F)F)cc(C)c1NC(=O)c1cccc(N(CCC(=O)O)C(=O)c2ccccc2)c1 [5-4, 3-(N-(3-(2,6-dimethyl-4-(perfluoropropan-2-yl)phenylcarbamoyl)phenyl)benzamide)propanoic acid] | – | ≥ 70
25 | Cc1cc(C(F)(C(F)(F)F)C(F)(F)F)cc(C)c1N(CC(=O)O)C(=O)c1cccc(N(CC(=O)O)C(=O)c2ccccc2)c1F [8-13, 2-(N-(3((carboxymethyl)(2,6-dimethyl-4-(perfluoropropan-2-yl)phenyl)carbamoyl)-2-fluorophenyl)benzamide)acetic acid] | – | ≥ 70
26 | COC(=O)CCN(C(=O)c1cccc(NC(=O)c2ccccc2)c1)c1c(C)cc(C(F)(C(F)(F)F)C(F)(F)F)cc1C [7-6, methyl 3-(3-benzamide-N-(2,6-dimethyl-4-(perfluoropropan-2-yl)phenyl)benzamide)propanoate] | – | ≥ 70
